In one data set the test system is tolC^− strains. The data set is described as follows: growth and viability of tolC- strains on antibiotic. The class given is cell-based, E. coli. The method, then: Electrocompetent cells of strain V674E were made by standard methods (35); however, the transformation efficiency of this strain is low (10^6–10^7) due to the tolC^− mutation. Using standard methods, both the pACλcI32 and the pBRαLN plasmids or appropriate derivatives were transformed into the strain. Transformants were grown on LB with 100 μg/mL ampicillin and 6 μg/mL chloramphenicol. […] In addition MacConkey plates can't be used because MacConkey media is toxic to strains bearing a tolC^− mutation.

The next data set deals with E. coli cells. Put plainly: toxicity to E. coli cells in three-hybrid experiments. It is filed as cell-based. Particulars: at the low concentrations of Mtx-SLF required for the three-hybrid experiments; tolC^− strain. The method, then:
The next step was the construction of the E. coli strain expressing the λcI-FKBP12 and (NTD-DHFR fusion proteins and containing the lacZ reporter construct. Plasmids encoding the λcI-FKBP12 and αNTD-DHFR chimeras were prepared from vectors pACλcI32 and pBRαLN using standard molecular biology techniques (8). The same synthetic lacZ reporter, placOR2-62, as initially reported by the Hochschild lab was used. The reporter placOR2-62 is maintained in one copy in the chromosome as a prophage and encodes the lacZ gene 62 bp downstream from the λcI operator (FIG. 1) (16). Based on previous results from Kopytek and Hu showing that tolC^− and thyA^− mutations improved the viability and tolerance of E. coli to Mtx-based molecules, we expected export as well as toxicity of Mtx-SLF to be problematic in E. coli (32). Thus, we modified the original Hochschild strain KS1 to be tolC^− in order to decrease active export of our small molecule. […] We introduced the tolC^− mutation into KS1 via a P1vir transduction from strain SK037 (32). We call this test strain V674E. Transformation of the plasmids bearing the various λcI and αNTD fusion proteins into V674E yielded the final experimental strains.
These X-gal plate results were confirmed using more quantitative liquid β-galactosidase assays. The liquid assays were carried out essentially as originally described by Miller (35). […]

Data set [1] concerns λcI-FKBP12 and αNTD-DHFR fusion proteins (lacZ reporter gene in E. coli strain V674E). Put plainly: liquid lacZ (ONPG) β-galactosidase assay, bacterial three-hybrid system. The class given is cell-based. Particulars: for effect of unlinked ligand on the levels of transcription in the three-hybrid system: control without Mtx-SLF (FIG. 4).
From the text: The levels of small-molecule induced transcriptional activation were quantified using liquid lacZ assays. The strains here correspond exactly to those in FIG. 2 and are used in liquid ONPG assays where the levels of transcriptional activation can be quantitated based on the amount of reporter protein, b-galactosidase, which is produced. The strains are V674E bearing plasmids encoding λcI and αNTD fusion proteins: 1, λcI-Gal4, αNTD-Gal11^P; 2, λcI, αNTD; 3, λcI-FKBP12, αNTD; 4, λcI-FKBP12, αNTD-DHFR; 5, λcI, αNTD-DHFR. The strains were assayed in triplicate from three transformants and standard deviations are shown. The strains are grown in LB with 0.5 mM IPTG, 100 μg/mL ampicillin, 6 μg/mL chloramphenicol, and small molecules at the indicated concentration. […] The last two small-molecule concentrations are competition assays in which an excess of one of the ligands for the receptor proteins was used to compete out the positive signal due to the three-hybrid system.
The strains are V674E expressing the following λcI and αNTD fusion proteins: (♦), λcI-Gal4, αNTD-Gal11^P (a direct protein-protein interaction); (▬), λcI-FKBP12, αNTD (a negative control); and (▴), λcI-FKBP12, αNTD-DHFR (the three-hybrid system). […] The standard deviation for each data point is also shown.
For the liquid assays, the strains were incubated overnight in LB liquid media containing 100 μg/mL ampicillin, 6 μg/mL chloramphenicol, and 0.5 mM IPTG overnight. These cultures were used to innoculate 1000 fold into LB liquid media containing 100 μg/mL ampicillin, 6 μg/mL chloramphenicol, 0.5 mM IPTG, and small molecule (per concentration indicated in each experiment) and grown to a final OD600 of 0.4-0.6 in a 37° C. shaker which took about 5 hours. No tPEG is used in the liquid assays in order to get a true quantization of the transcription. Then, the protocol from Miller was followed exactly using 0.1 mL cell lysate for the assay (35).
For the next data set, the target named is FKBP12 (Homo sapiens, UniProt P62942). The following applies: cited from earlier work.
Chain of FKBP12 (P62942 whole entry): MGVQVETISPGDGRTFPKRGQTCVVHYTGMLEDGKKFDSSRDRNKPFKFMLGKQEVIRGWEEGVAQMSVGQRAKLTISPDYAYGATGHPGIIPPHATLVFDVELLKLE

Structures are written as SMILES.

The values below come from US7083918B2, “Bacterial small-molecule three-hybrid system” (The Trustees of Columbia University in the City of New York, priority 2002, dated 2006).

Take `O=C(N[C@H](CO)[C@H](O)c1ccc([N+](=O)[O-])cc1)C(Cl)Cl` [Chloramphenicol]: in the data set on tolC^− strains, the “levels that significantly impair growth and viability of tolC^− strains” value is recorded as “above 8 μg/mL”.

In the case of `CN(Cc1cnc2nc(N)nc(N)c2n1)c1ccc(C(=O)N[C@@H](CCC(=O)O)C(=O)O)cc1` [Mtx, methotrexate], the “toxicity in E. coli (need for thyA^− mutation)” value with E. coli cells is listed as “not sufficiently toxic”. In addition, the “effect of unlinked ligand on the levels of transcription in the three-hybrid system” value in data set [1] is reported as “Neither Mtx, SLF, nor a combination of the two affects the levels of transcription”. Take `CCC(C)(C)C(=O)C(=O)N1CCCCC1C(=O)OC(CCc1ccc(OC)c(OC)c1)c1cccc(OCC(=O)O)c1` (stereo not drawn) [SLF]: in data set [1], the “effect of unlinked ligand on the levels of transcription in the three-hybrid system” value was “Neither Mtx, SLF, nor a combination of the two affects the levels of transcription”. Moreover, on FKBP12, the “affinity for FKBP12” value was “nanomolar affinity”.

As to `CCC(C)(C)C(=O)C(=O)N1CCCCC1C(=O)OC(CCc1ccc(OC)c(OC)c1)c1cccc(OCC(=O)OC(C)(C)C)c1` (stereo not drawn) [tert-butyl ester of SLF], the “levels of transcription with competitor relative to 1 μM Mtx-SLF alone” value in data set [1] (competition: 1 μM Mtx-SLF plus 10-fold excess of competitor) was “about half”.
